Patent US10035794B2, “Heterocyclic derivatives and their use in the treatment of neurological disorders” (NOVARTIS AG, priority 2011, dated 2018)

Experiments:
[1] = Test 4: Inhibition of Cellular Release of Amyloid Peptide 1-40; format: cell-based, Chinese hamster; conditions: Cricetulus griseus, CHO, 24 h; read-out: Amyloid-β1-40 release IC50
Description: Chinese hamster ovary cells are transfected with the human gene for amyloid precursor protein. The cells are plated at a density of 8000 cells/well into 96-well microtiter plates and cultivated for 24 hours in DMEM cell culture medium containing 10% FCS. The test compound is added to the cells at various concentrations, and the cells are cultivated for 24 hours in the presence of the test compound.

Human BACE-1 = Human BACE-1 (Homo sapiens (Human), UniProt P56817); experiment: Test 1: Inhibition of Human BACE-1; conditions: read-out: BACE-1 IC50; mean IC50, recombinant BACE-1, pH 4.5
Human BACE-2 = Human BACE-2 (Homo sapiens (Human), UniProt Q9Y5Z0); experiment: Test 2: Inhibition of Human BACE-2; format: biochemical; conditions: mean IC50, recombinant BACE-2, pH 4.5
Description: Test 2: Inhibition of Human BACE-2

Chain of Human BACE-1 (P56817 46-457): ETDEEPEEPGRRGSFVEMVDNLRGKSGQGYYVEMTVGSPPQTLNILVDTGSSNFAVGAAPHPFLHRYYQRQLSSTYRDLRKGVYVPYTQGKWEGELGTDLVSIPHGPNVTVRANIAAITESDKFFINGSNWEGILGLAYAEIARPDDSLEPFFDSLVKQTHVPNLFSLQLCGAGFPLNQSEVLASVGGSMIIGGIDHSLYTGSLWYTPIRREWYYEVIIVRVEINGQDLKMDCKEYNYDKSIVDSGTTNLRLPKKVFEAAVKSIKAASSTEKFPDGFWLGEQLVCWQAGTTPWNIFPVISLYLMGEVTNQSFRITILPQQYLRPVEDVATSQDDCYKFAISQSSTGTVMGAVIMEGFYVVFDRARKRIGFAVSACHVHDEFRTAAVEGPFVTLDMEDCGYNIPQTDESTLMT
Chain of Human BACE-2 (Q9Y5Z0 63-473): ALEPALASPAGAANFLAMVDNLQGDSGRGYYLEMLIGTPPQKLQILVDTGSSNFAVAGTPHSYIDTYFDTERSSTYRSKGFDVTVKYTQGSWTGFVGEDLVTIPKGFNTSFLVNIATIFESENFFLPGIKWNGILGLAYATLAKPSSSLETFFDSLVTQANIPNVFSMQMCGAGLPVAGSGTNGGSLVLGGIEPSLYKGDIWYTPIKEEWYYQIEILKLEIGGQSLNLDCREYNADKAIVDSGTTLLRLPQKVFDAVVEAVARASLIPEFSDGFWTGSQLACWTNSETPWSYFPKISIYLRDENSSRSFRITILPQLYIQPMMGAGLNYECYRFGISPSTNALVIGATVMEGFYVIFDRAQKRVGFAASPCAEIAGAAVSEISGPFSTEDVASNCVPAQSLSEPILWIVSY

Structure (SMILES) | IC50 [1] [nM] | IC50 (Human BACE-1) [nM] | IC50 (Human BACE-2) [nM]
NC1=NC(CF)(c2cccc(NC(=O)c3ccc(Cl)cn3)n2)COC1 (centres unmarked) [Example 3, 5-{6-[(5-Chloro-pyridine-2-carbonyl)-amino]-pyridin-2-yl}-5-fluoromethyl-5,6-dihydro-2H-[1,4]oxazin-3-yl-ammonium trifluoro acetate] | 140 | 2600 | 
NC1=NC(CF)(c2cccc(NC(=O)c3ccc(Br)cn3)n2)COC1 (centres unmarked) [Example 4, 5-Bromo-pyridine-2-carboxylic acid [6-(5-amino-3-fluoromethyl-3,6-dihydro-2H-[1,4]oxazin-3-yl)-pyridin-2-yl]-amide] | 98 | 1600 | 1700
C[C@]1(c2cccc(NC(=O)c3ccc(C#N)cn3)n2)CO[C@@](C)(C(F)(F)F)C(N)=N1 [Example 9, 5-Cyano-pyridine-2-carboxylic acid [6-((3S,6R)-5-amino-3,6-dimethyl-6-trifluoromethyl-3,6-dihydro-2H-[1,4]oxazin-3-yl)-pyridin-2-yl]-amide] | 1900 |  | 
[2H]c1nc(C(=O)Nc2cc(C3(CF)COCC(N)=N3)ccn2)c(C([2H])([2H])[2H])c([2H])c1Cl (centres unmarked) [Example 13, 5-{2-[(5-Chloro-4,6-dideutero-3-trideuteromethyl-pyridine-2-carbonyl)-amino]-pyridin-4-yl}-5-fluoromethyl-5,6-dihydro-2H-[1,4]oxazin-3-yl-ammonium acetate] | 550 |  | 

Now those with a lower IC50 [1], led by results:

IC50 [1] [nM] | IC50 (Human BACE-1) [nM] | IC50 (Human BACE-2) [nM] | Structure (SMILES)
40 | 270 | 1000 | Cc1cc(C#N)cnc1C(=O)Nc1cccc(C2(CF)COCC(N)=N2)n1 (centres unmarked) [Example 5, 5-{6-[(5-Cyano-3-methyl-pyridine-2-carbonyl)-amino]-pyridin-2-yl}-5-fluoromethyl-5,6-dihydro-2H-[1,4]oxazin-3-yl-ammonium trifluoro acetate]
76 |  |  | COc1cnc(C(=O)Nc2ccc(F)c([C@]3(C)CO[C@@](C)(C(F)(F)F)C(N)=N3)n2)c(C)c1 [Example 25, 5-Methoxy-3-methyl-pyridine-2-carboxylic acid [6-((3R,6R)-5-amino-3,6-dimethyl-6-trifluoromethyl-3,6-dihydro-2H-[1,4]oxazin-3-yl)-5-fluoro-pyridin-2-yl]amide]
